Experimental data taken from patent US12216122B2, “Compositions and methods relating to detection, inhibition, and imaging of indoleamine 2,3-dioxygenase 1 (IDO1)” (Regeneron Pharmaceuticals, Inc., priority 2019, dated 2025).
Where two headings read alike, the source gives them in different places. One block for each compound: values may come before it. Numbered stars: 1 amine (or outer) side, 2 acyl side, 3 side chain; on linkers, the order of the positions; unused ones are H or OH. Bridge positions count the residues as written; N and C are the ends. Square brackets hold non-standard residues; d marks the D form. Triazole bridges read from a SMILES are 1,4-linked. Ends that are not written are not given here. Peptide text beside a SMILES is read from it. * marks the point of attachment. NH(CH2CH2O)5CH2CO = O=C(COCCOCCOCCOCCOCCN[*:1])[*:2]; X2 = O=C(CCCCCSc1nonc1/C(=N/O)Nc1ccc(F)c(Br)c1)*; X1 = O=C(CSc1nonc1/C(=N/O)Nc1ccc(F)c(Br)c1)*; Trp(1-Me) = Cn1cc(C[C@H](N)C(=O)O)c2ccccc21; PEG8 = NCCOCCOCCOCCOCCOCCOCCOCCOCCC(=O)O; Lys(N3) = [N-]=[N+]=NCCCC[C@H](N)C(=O)O; Phe(4-F) = N[C@@H](Cc1ccc(F)cc1)C(=O)O; PEG6 = NCCOCCOCCOCCOCCOCCOCCC(=O)O; dNMeV = CN[C@@H](C(=O)O)C(C)C; Pra = C#CC[C@H](N)C(=O)O

What was measured:
HeLa cells = assay: Cellular internalization of fluorescent IDO1 ligands (flow cytometry); assay type: cell-based; details: Cy5 or FITC label, flow cytometry
Method: Internalization of fluorescently labeled peptides (using Cy5 or FITC) was measured by concentration dependent flow cytometry of unstimulated HeLa cells incubated for one hour with the peptide. […] Internalization was also testing using a cellular inhibition assay, which occurs over 48 hours (rather than the one hour for the flow cytometry assay). Internalized FITC-wyvay (SEQ ID NO:2) at 48 hours was compared to one hour in both unstimulated and stimulated HeLa cells (Table 13). Cell penetration of FITC-wyvay (SEQ ID NO:2) increases with time; more internalized FITC-wyvay (SEQ ID NO:2) can be detected at 48 hours compared to one hour. After one hour, no difference in intracellular staining of FITC-wyvay (SEQ ID NO:2) is observed in unstimulated versus stimulated cells. At 48 hours, there is a slight increase in intracellular FITC-wyvay (SEQ ID NO:2) in stimulated compared to unstimulated cells.
Protocol: HeLa cells were cultured to confluence (˜500,000 cells) in 6-well plates in cell culture medium (DMEM+10% Fetal Bovine Serum (FBS)+1% Penicillin/Streptomycin) or in cell culture medium containing 100 ng/mL IFNγ to stimulate IDO1 expression. The cells were treated with 2 μM or 8 μM macrocyclic IDO1 ligand labeled with either Cy5 or FITC for either 1 hour, 24 hours, or 48 hours as indicated. After treatment, the ligands were aspirated and the cells were washed twice with 1× Phosphate Buffered Saline (PBS). The cells were then harvested by treatment with 0.05% Trypsin-1×EDTA for 5 min at 37° C. Trypsin was quenched by the addition of PBS+2% FBS. The cells in suspension were washed twice in PBS+2% FBS, then resuspended in 500 μL PBS+2% FBS and analyzed for Cy5 or FITC fluorescence using a BD LSR Fortessa X-20 flow cytometer or/and ImageStream X Mark II imaging flow cytometer. Flow Cytometry Standard (fcs) data files were analyzed using FlowJo Software version 10.

[1] = biological target: T1, IDO1 in IFNγ stimulated HeLa cells (Homo sapiens, UniProt P14902); assay: IDO1 inhibition assay in HeLa cells stimulated with IFNγ; assay type: cell-based; details: for inhibition at 8 µM: HeLa
T1 construct: endogenous in cells; host or cells: HeLa cells stimulated with IFNγ
T1 sequence (P14902 whole entry): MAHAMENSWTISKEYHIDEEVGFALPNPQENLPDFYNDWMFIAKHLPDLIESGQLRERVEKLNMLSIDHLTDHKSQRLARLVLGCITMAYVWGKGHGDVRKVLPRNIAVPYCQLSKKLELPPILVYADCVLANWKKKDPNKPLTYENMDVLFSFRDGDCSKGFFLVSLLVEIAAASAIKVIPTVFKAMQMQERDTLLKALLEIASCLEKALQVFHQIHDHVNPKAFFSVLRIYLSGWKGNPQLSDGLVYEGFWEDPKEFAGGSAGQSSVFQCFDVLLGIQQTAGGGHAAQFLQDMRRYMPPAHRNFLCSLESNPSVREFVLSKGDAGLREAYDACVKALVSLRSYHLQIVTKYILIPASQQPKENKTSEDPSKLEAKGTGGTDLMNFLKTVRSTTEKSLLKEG
Method: Lead compounds prioritized in the recombinant IDO1 inhibition assay were advanced to a cellular IDO1 inhibition assay.
Protocol: HeLa cells were trypsinized and diluted to a density of 2×10^5 cells/mL in cell culture medium (DMEM+10% Fetal Bovine Serum (FBS)+1% Penicillin/Streptomycin). Sterile L-tryptophan was added to the cells at a final concentration of 300 μM. IFNγ at a final concentration of 100 ng/mL was added to HeLa cells to stimulate IDO1 expression. Unstimulated HeLa cells in the absence of IFNγ were used for background subtraction. HeLa cells with or without IFNγ were plated in 96-well Greiner black assay plates at a density of 22,000 cells/well. […] 8 μL of each compound dilution were then dispensed into the Greiner black 96-well assay plate(s) containing HeLa cells in triplicate, yielding final assay compound concentrations of 8 μM serially diluted to 1.27 nM. The plates were incubated at 37° C. with 5% CO2. After 48 hours, 24 μL of 0.5 M methyl isonipecotate in DMSO were added into each well and the plates were sealed and incubated at 37° C. with 5% CO2 overnight. The resulting fluorescence was measured in a BioTek Synergy H1 plate reader with a 400 nm excitation filter and a 510 nm emission filter. The fluorescence intensity of each well was corrected for the background observed in wells with non-IFNγ-treated cells and was expressed as a fraction of the intensity observed in wells of IFNγ-treated cells with vehicle only.

[2] = biological target: T2, His-tagged IDO1 human recombinant protein (Homo sapiens, UniProt P14902); assay: IDO1 ELISA (Affinity Assay): sandwich ELISA, biotinylated ligand immobilized on NEUTRAVIDIN plate; assay type: binding; details: binding analysis of VHL-linked Epitope 2 ligand; read-out: EC50
T2 construct: purchased BPS Biosciences 71182
T2 sequence (P14902 whole entry): as above
Method: Protocol: A black 96-well NEUTRAVIDIN® Coated High Binding Capacity plate (15510, Pierce) was coated with 2 μM biotinylated macrocyclic peptide ligand in TBS (25 mM Tris-HCl, 150 mM NaCl, pH 7.6) for 2 h at room temperature. The plate was aspirated and then washed with Wash Buffer (0.05% (v/v) TWEEN® 20 in PBS, 6×). His-tagged IDO1 human recombinant protein (71182, BPS Biosciences) was serially diluted in Wash Buffer (from 200 to 0 nM) and incubated in the designated microwells for 1 h at room temperature. Microwells were aspirated and subsequently washed with Wash Buffer (11×). To detect the bound IDO1 protein, Alkaline Phosphatase (AP)-conjugated Anti-6×HIS TAG® antibody [HIS-1] (ab49746, Abcam) was prepared at 1:10,000 dilution and added to the microwells for 1 h at room temperature. The plate was aspirated and washed with Wash Buffer (5×). ATTOPHOS® AP Fluorescent Substrate System (S1000, Promega) was employed to develop the microwells. Using an excitation wavelength of 430 nm, fluorescent emission at 535 nm was recorded by Beckman Coulter DTX880 photometer. Titration curves were fit using a four-parameter regression curve fitting program to determine EC50 values.
For these assays, a dilution series of His-tagged IDO1 human recombinant protein was captured using the macrocyclic peptide ligands immobilized on a NEUTRAVIDIN®-coated plate. […] The sequences of the peptide ligands are listed in Table 1, where D-amino acids are denoted in lowercase, Me-Trp=1-methyl-L-tryptophan, and F-Phe=4-fluoro-L-phenylalanine. Chemical structures are shown below Table 1.
The D-alanine substituted, biotin-PEG3-modified macrocycles were tested in the IDO1 ELISA (Affinity assay). For these assays, a dilution series of His-tagged IDO1 human recombinant protein was captured using macrocycles immobilized on a NEUTRAVIDIN®-coated plate.

recombinant human IDO1 = biological target: T3, recombinant human IDO1 (Homo sapiens, UniProt P14902); assay: IDO1 Fluorogenic Inhibitor Screening Assay (enzyme inhibition); assay type: biochemical
T3 construct: purchased BPS Biosciences 72037
T3 sequence (P14902 whole entry): as above
Method: The IDO1 Fluorogenic Inhibitor Screening Assay Kit (72037, BPS Biosciences) was used to measure the enzyme inhibition of human IDO1 in the presence of macrocyclic peptide ligands. IDO1 catalyzes the conversion of the essential amino acid L-tryptophan (L-Trp) to N-formylkynurenine (NFK). In the assay, the test inhibitor and enzyme were added to a sample containing L-Trp substrate. After incubation for 1 h at room temperature, 20 μL Fluorescence Solution was added and incubated at 37° C. for 4 h to produce a fluorescent product. Activity was measured by reading sample fluorescence at λ=510 nm following excitation of the reaction product at λ=400 nm.

[3] = read-out: % inhibition at 8 μM, HeLa, Table 17
[4] = Table 18, read-out: Inhibition HeLa IC50
[5] = Table 19, read-out: Inhibition HeLa cells IC50
[6] = N-methylated heterobiligands, PEG6 linker, read-out: IC50
[7] = PEG linker length series, wyry, read-out: IC50
[8] = PEG linker length series, wyvay, read-out: IC50
[9] = Table 15, read-out: Inhibition Recombinant IDO1 IC50
[10] = Table 17, read-out: Inhibition Recombinant IDO1 IC50
[11] = Table 18, read-out: Inhibition Recombinant IDO1 IC50
[12] = Table 19, read-out: Inhibition Human rIDO1 IC50

inhibition at 8 µM [1, 3]: 99.6% | IC50 ([1]; Table 15, read-out: Inhibition HeLa cells IC50): 0.125 µM | IC50 ([1]; Table 17, read-out: Inhibition HeLa IC50): 0.244 µM | IC50 [1, 4]: 0.406 µM | IC50 [1, 5]: 0.406 µM | EC50 [2]: > 1000 nM | IC50 (recombinant human IDO1; [6]): 928 nM | IC50 (recombinant human IDO1; [7]): 1090 nM | IC50 (recombinant human IDO1; [8]): 1050 nM | IC50 (recombinant human IDO1; [9]): 928 nM | IC50 (recombinant human IDO1; [10]): 1090 nM | IC50 (recombinant human IDO1; [11]): 1090 nM | IC50 (recombinant human IDO1; [12]): 1050 nM | IC50 (recombinant human IDO1; effect of linker and of protection of the inhibitor, read-out: IC50): 616 nM | IC50 (recombinant human IDO1; linker composition series, read-out: IC50): 693 nM
Compound: O=C(O)CSc1nonc1/C(=N/O)Nc1ccc(F)c(Br)c1 [Inh]

Cellular IDO1 inhibition, in words [1]: good inhibition/cell penetration
Compound: d-Hex-Inh-PEG5-wyvay: heterobiligand with linker modified to increase lipophilicity, PEG5 ([dW][dY][dV][dA][dY]; also: d-Hex-inhibitor via PEG5 linker)

IC50 [1, 4]: 0.221 µM | IC50 [1, 5]: 0.221 µM | IC50 (recombinant human IDO1; [11]): 539 nM | IC50 (recombinant human IDO1; [12]): 539 nM
Compound: CC(C)[C@H]1NC(=O)[C@@H](Cc2ccc(O)cc2)NC(=O)[C@@H](Cc2c[nH]c3ccccc23)NC(=O)[C@@H](NC(=O)COCCOCCOCCOCCOCCNC(=O)CCCCCSc2nonc2/C(=N/O)Nc2ccc(F)c(Br)c2)Cc2cn(nn2)CCCC[C@@H](C(N)=O)NC(=O)[C@@H](Cc2ccc(O)cc2)NC(=O)[C@@H](C)NC1=O [Inh2-PEG5-wyvay] (X2-[NH(CH2CH2O)5CH2CO][Pra][dW][dY][dV][dA][dY][Lys(N3)]-NH2; triazole 2-8)

IC50 [1, 4]: 0.997 µM | IC50 [1, 5]: 0.997 µM | IC50 (recombinant human IDO1; [11]): 343 nM | IC50 (recombinant human IDO1; [12]): 343 nM
Compound: O=C(O)CCCCCSc1nonc1/C(=N/O)Nc1ccc(F)c(Br)c1 [Inh2]

inhibition at 8 µM [1, 3]: 47.8% | Inhibition HeLa IC50 nM ([1]; Table 17): no curve fit | IC50 (recombinant human IDO1; [7]): 338 nM | IC50 (recombinant human IDO1; [10]): 338 nM
Compound: N=C(N)NCCC[C@H]1NC(=O)[C@@H](Cc2ccc(O)cc2)NC(=O)[C@@H](Cc2c[nH]c3ccccc23)NC(=O)[C@@H](NC(=O)CCOCCOCCOCCOCCOCCOCCNC(=O)CSc2nonc2/C(=N/O)Nc2ccc(F)c(Br)c2)Cc2cn(nn2)CCCC[C@@H](C(N)=O)NC(=O)[C@@H](Cc2ccc(O)cc2)NC1=O [Inh-PEG6-wyry] ({X1-PEG6}-[Pra][dW][dY][dR][dY][Lys(N3)]-NH2; triazole 1-6)
IDO1 inhibition potency relative to the small molecule (Inh) alone, in words (recombinant human IDO1): more than three times as potent as Inh alone

Further lines, the compound ahead of its results:

Compound: FITC-nlf(Me-Trp)(F-Phe): FITC labeled Epitope 2 macrocycle nlf(Me-Trp)(F-Phe) ([dN][dL][dF][Trp(1-Me)][Phe(4-F)]; triazole (positions not given here); also: FITC label, site not given here, macrocycle by click between N-terminal Pra and C-terminal Az4, not in chain)
Internalization of fluorescently labeled peptide, in words (HeLa cells): reduced but detectable and concentration dependent

Compound: d-Hex-Inh-PEG6-wyvay: heterobiligand with linker modified to increase lipophilicity, PEG6 ([dW][dY][dV][dA][dY]; also: d-Hex-inhibitor via PEG6 linker)
Cellular IDO1 inhibition, in words [1]: only showed inhibition at higher concentrations

Compound: wy(N-Me-v)ay: wyvay peptide ligand with N-methylated valine (third N—H) ([Pra][dW][dY][dNMeV][dA][dY]; triazole N-C; not fully specified (C-terminus); printed as wy(N-Me-v)ay)
Internalization of fluorescently labeled peptide, in words (HeLa cells): much higher than wyvay

Compound: d-Hex-Inh-PEG4-wyvay: heterobiligand with linker modified to increase lipophilicity, PEG4 ([dW][dY][dV][dA][dY]; also: d-Hex-inhibitor via PEG4 linker)
Cellular IDO1 inhibition, in words [1]: only showed inhibition at higher concentrations

Compound: CC(C)[C@H]1NC(=O)[C@@H](Cc2ccc(O)cc2)NC(=O)[C@@H](Cc2c[nH]c3ccccc23)NC(=O)[C@@H](NC(=O)CCOCCOCCOCCOCCOCCOCCNC(=O)CSc2nonc2/C(=N/O)Nc2ccc(F)c(Br)c2)Cc2cn(nn2)CCCC[C@@H](C(N)=O)NC(=O)[C@@H](Cc2ccc(O)cc2)NC(=O)[C@@H](C)NC1=O [Inh-PEG6-wyvay] ({X1-PEG6}-[Pra][dW][dY][dV][dA][dY][Lys(N3)]-NH2; triazole 1-7)
inhibition at 8 µM ([1]; read-out: % inhibition at 8 μM, HeLa cells, Table 19): 36.1% | inhibition at 8 µM [1, 3]: 36.1% | IC50 ([1]; Table 17, cells print μM, read-out: Inhibition HeLa IC50): 35.7 µM | IC50 [1, 5]: 35.7 µM | IC50 (recombinant human IDO1; [6]): 44 nM | IC50 (recombinant human IDO1; [8]): 265 nM | IC50 (recombinant human IDO1; [9]): 44 nM | IC50 (recombinant human IDO1; [12]): 265 nM

Compound: CC(C)[C@H]1NC(=O)[C@@H](Cc2ccc(O)cc2)NC(=O)[C@@H](Cc2c[nH]c3ccccc23)NC(=O)[C@@H](NC(=O)CCOCCOCCOCCOCCOCCOCCOCCOCCNC(=O)CSc2nonc2/C(=N/O)Nc2ccc(F)c(Br)c2)Cc2cn(nn2)CCCC[C@@H](C(N)=O)NC(=O)[C@@H](Cc2ccc(O)cc2)NC(=O)[C@@H](C)NC1=O [Deprotected-Inh-PEG8-wyvay] ({X1-PEG8}-[Pra][dW][dY][dV][dA][dY][Lys(N3)]-NH2; triazole 1-7)
inhibition at 8 µM [1, 3]: 77.3%
